Source: patent US20070032477A1, “Pteridine derivatives useful for making pharmaceutical compositions” (priority 2003, published 2007)

System: CII induced rheumatoid arthritis in DBA mice
Experiment: Collagen type II induced model of rheumatoid arthritis
Conditions: mice in vivo; example 17 up to 40 mg/kg/day; methotrexate 10 mg/kg/day, 3 times a week
Excerpt: Collagen type II (hereinafter referred as CII) induced experimental model of rheumatoid arthritis (hereinafter referred as RA) in DBA mice is widely accepted as the most relevant and predictive preclinical model for RA. In this model, DBA mice are immunized with CII, the collagen type mainly present in the joint structures, together with complete Freund Adjuvant in their tail. 2 to 3 weeks later, several of the immunized mice start to develop arthritis in the four footpaths. In order to further worsen the disease, mice are given a second CII boost at three weeks after the first immunisation, this time however in a footpath. Because the immune system is already immunised in these mice, this rapidly provokes a severe swelling of the injected footpath (named Delayed Type Hypersensitivity or DTH) which can be used as a measurement for T-cell activation. Within a few days after the booster, almost all untreated animals start developing symptoms of arthritis. RA development is scored from 0 to 16 (16 being severe clinical arthritis in all four footpaths). At the end of the study (3 weeks after the CII boost) antibody formation was determined against CII and histology performed on the footpaths.
The efficiency of the pteridine derivative of example 17 (administered in an amount of 20 mg/kg/day, started one day before the CII boost) was explored in this CII-model.

CN(Cc1cnc2nc(N)nc(N)c2n1)c1ccc(C(=O)N[C@@H](CCC(=O)O)C(=O)O)cc1 [methotrexate, reference compound] was tested, and the “mortality or cytotoxic effect on increasing the dose” value was “death of all animals”.
